The record followed here is patent US9000027B2, “Chk1 suppresses a caspase-2 apoptotic response to DNA damage that bypasses p53, bcl-2 and caspase-3” (Dana-Farber Cancer Institute, Inc., priority 2008, dated 2015).

In series [1] the test system is p53^e7/e7 mutant embryos. Put plainly: Morpholino screen for suppressors of p53^e7/e7 radioresistance (live AO assay). The conditions noted are these: p53^e7/e7, 12.5 Gy at 18 hpf, 7.5 hpIR. The series is classed as in vivo, zebrafish. How it is done:
We used morpholino antisense oligonucleotides (MOs) to knock down the expression levels of 8 zebrafish S- and G2-checkpoint kinases in p53^e7/e7 mutant embryos and assessed the ability of each knockdown to restore cell death (AO reactivity) at 7.5 hours post-IR (hpIR). We also tested several double-knockdown combinations, as well as knockdowns of non-kinase checkpoint regulators (p21^waf1/cip1 and smc1). For each knockdown, we scored a minimum of 50 embryos and quantified AO staining in at least 5 embryos. To avoid the isolation of false-positives, we adjusted the concentrations of each MO to the maximal dose compatible with normal embryonic development in the p53^e7/e7 background.
Morpholino oligonucleotides (MOs) synthesized by Gene Tools™ LLC, were resuspended in sterile water at a concentration of 1 mM and delivered into zebrafish embryos at the one-cell stage by microinjection. […] For each previously unpublished MO, the working concentration was determined as the highest dose compatible with normal zebrafish development in the p53^e7/e7 background (maximal subtoxic concentration). […]
Live zebrafish embryos were dechorionated in pronase (2.0 mg/mL in egg water) for 3 to 5 min and rinsed five times in egg water at 18 hpf. […] Lateral images of each zebrafish were acquired on a Zeiss Axioplan2 fluorescence microscope (5× lens), using OpenLab software and a Hammamatsu C4742-95 digital camera. […]

The test system of series [2] is HeLa cells. Put plainly: Cell viability assay (CellTiter-Glo) after IR. The series is classed as cell-based, human. The conditions noted are these: 10 Gy, 72 hpIR. The protocol: For the cell viability assay, Tg(BCL2)^− and Tg(BCL2)^+ H218 cells were seeded into black 96-well plates (BD Bioscience) at a density of 1000 cells per well on day 1. 24-well sets were treated with DMSO or Gö6976 (1 μM), and plates were exposed to 0 or 10 Gy IR on day 2. After 72 hr, cellular viability was measured with the CellTiter-Glo Luminescent Cell Viability Assay kit (Promega) according to the manufacturer's instructions. Cellular viability for each well was calculated as a percentage of the mean viability of DMSO-treated, non-irradiated cells. The mean cellular viability and SEM were calculated and plotted with GraphPad Prism version 3 (GraphPad Software, San Diego Calif., USA). Each viability experiment was performed twice.

The subject of series [3] is p53^+/+ embryos. Put plainly: Drug toxicity: AO reactivity and development of inhibitor-treated, non-irradiated p53+/+ embryos. The conditions noted are these: 0 Gy. The series is classed as in vivo, zebrafish. From the text:
Chk1 inhibitors hold considerable promise in cancer therapy, as they are expected to synergize with genotoxic agents to kill tumor cells lacking functional p53, without affecting normal cells (Kawabe, 2004; Zhou and Bartek, 2004). […] Gö6976 has not been tested in vivo in a vertebrate model system. We therefore evaluated it as well as specific Chk2 and ATM inhibitors in the zebrafish system. Drug toxicity was monitored by scoring the AO reactivity of inhibitor-treated, but non-irradiated, p53^+/+ embryos (left column in FIG. 8A). Unless otherwise indicated, the inhibitors were applied at 18 hpf (that is, immediately before IR) for a total of 6 hours.
Immediately before IR, 18-hpf embryos were dechorionated and transferred to fresh egg water containing 1% DMSO, with or without the following inhibitors at indicated final concentrations: KU55933 (10 μM; Sigma) (Hickson et al., 2004); Chk2 Inhibitor II (10 μM; Calbiochem) (Arienti et al., 2005); Gö6976 (1 μM; Calbiochem) (Kohn et al., 2003). Unless stated otherwise, embryos were exposed to the inhibitors for 6 hr, transferred to fresh egg water, rinsed five times for 5 min, and labeled with AO. For experiments with Tg(rag2:EGFP-bcl-2) larvae, larvae were incubated in the inhibitor solution at 4 dpf, irradiated at 5 dpf, rinsed at 6 dpf, incubated in fresh inhibitor for an additional 72 hr, and mounted live at 9 dpf for fluorescence microscopic analysis of EGFP expression.

For series [4], the system named is HeLa cells. Nature of the series: Clonogenic survival assay after IR. The series is classed as cell-based, human. The settings on record: Gö6976 500 nM from 24 hbIR. How it is done: Clonogenic assays were performed as described (Franken et al., 2006). Briefly, the cells were plated in 6-cm dishes, treated with Gö6976 followed by IR and cultured for 2 weeks. The medium was then removed, and the cells were rinsed by PBS and incubated with a mixture of 6.0% glutaraldehyde and 0.5% crystal violet (Sigma-Aldrich, St Louis, Mo., USA) for 30 min at room temperature. The dishes were washed with water, and colonies consisting of at least 50 cells were counted.

For the molecule “chk1 MO: morpholino against zebrafish chk1 atg/5'UTR, aggcacagccattatgcaatcttcg (SEQ ID NO: 11) (AGGCACAGCCATTATGCAATCTTCG; all phosphorodiamidate morpholino (PMO))”, the “AO reactivity restored, of the p53+/+ response” value in series [1] came out at 87.7%.

With `Cn1c2ccccc2c2c3c(c4c5ccccc5n(CCC#N)c4c21)CNC3=O` [Gö6976], the “radiosensitizing effect (cell killing)” value in series [2] (Gö6976 1 μM) was ~50%. In series [2] (regardless of BCL2 transgene), the “radiosensitization of HeLa cells” value is on record as ~2 fold. For the same molecule, the “long-term development of non-irradiated treated embryos” value in series [3] (p53+/+) is on record as “developed into normal adults without overt signs of spontaneous tumorigenesis or other pathologies”. Besides, in series [3] (Gö6976 1 μM, KU55933 10 μM, Chk2 Inhibitor II 10 μM), the “toxicity of the dose used (AO reactivity of non-irradiated embryos)” value is recorded as “non-toxic”. In series [4] (2 Gy), the clonogenic radiosensitization entry was “inability of Gö6976 to significantly radiosensitize the cells”. Besides, the “reduction in number of colonies” value in series [4] (3.2 Gy, colonies counted 14 dpIR) was found to be 50%.
